Each molecule was assayed against T1, USP7, full-length, native C-Terminus (Homo sapiens, UniProt Q93009) (assay: Biochemical USP7 assay with Ubiquitin-Rho110 substrate, compounds pre-incubated with USP7 (USP7_Ub-Rho preInc)). Details: compounds pre-mixed with USP7, 1 hour incubation, before substrate; read-out: USP7 Ub-Rho preInc (IC50).
T1 construct: USP7, full-length, native C-Terminus, 0.2 nM
Method: (§1) Biochemical USP7 assays using Ubiquitin-Rho110 as a substrate: The final assay conditions were as follows: The Reaction Buffer consisted of: 50 mM Tris (pH 7.5), 0.01% (v/v) Triton X-100, 2.5 mM Dithiothreitol, 0.1% (w/v) bovine gamma globulin (Sigma cat #G5009-25G); USP7, full-length, native C-Terminus, 0.2 nM; the substrate, Ubiquitin-Rho110 (Boston Biochem cat #U-555), 1 uM. Reactions were carried out for 1 hour at room temperature, in black 20 μL volume polystyrene ProxiPlate 384 F Plus® (PerkinElmer cat #6008260).
(§2) Test compounds, including a control USP7 inhibitor (Ub-aldehyde, Boston Biochem cat #U-201) were serially diluted in DMSO, in 384 well clear V-bottom polypropylene plates (Greiner cat #781280). Compounds in DMSO were diluted 10-fold into Reaction Buffer, to achieve 3-fold the final desired concentration. The substrate, Ubiquitin-Rho110 (Boston Biochem cat #U-555), was prepared at 3 μM (3-fold the final concentration) and 5 ul was dispensed into the reaction plate. 5 ul of the compounds (diluted in Reaction Buffer at 3-fold the final concentration) were transferred to the reaction plate. 5 ul of 0.6 nM USP7 (diluted in Reaction Buffer at 3-fold the final concentration) was transferred to the reaction plate to initiate the reaction. After 1 hour incubation at room temperature the reaction was quenched by the addition of 5 ul of 400 mM acetic acid. The enzymatic product was measured by quantifying the fluorescence signal of cleaved Rhodamine-110 using excitation at 485 nm and emission at 535 nm. When pre-incubation of USP7 with compounds was required, the order of addition of reagents was modified to pre-mix the compounds with USP7 (with a 1 hour incubation period), prior to the addition of the substrate and the initiation of the reaction period. Percentage inhibition values were calculated relative to a no enzyme control and a uninhibited enzyme control. Curve fitting and IC50 calculations were carried out using Genedata Screener software.

T1 sequence (Q93009 whole entry): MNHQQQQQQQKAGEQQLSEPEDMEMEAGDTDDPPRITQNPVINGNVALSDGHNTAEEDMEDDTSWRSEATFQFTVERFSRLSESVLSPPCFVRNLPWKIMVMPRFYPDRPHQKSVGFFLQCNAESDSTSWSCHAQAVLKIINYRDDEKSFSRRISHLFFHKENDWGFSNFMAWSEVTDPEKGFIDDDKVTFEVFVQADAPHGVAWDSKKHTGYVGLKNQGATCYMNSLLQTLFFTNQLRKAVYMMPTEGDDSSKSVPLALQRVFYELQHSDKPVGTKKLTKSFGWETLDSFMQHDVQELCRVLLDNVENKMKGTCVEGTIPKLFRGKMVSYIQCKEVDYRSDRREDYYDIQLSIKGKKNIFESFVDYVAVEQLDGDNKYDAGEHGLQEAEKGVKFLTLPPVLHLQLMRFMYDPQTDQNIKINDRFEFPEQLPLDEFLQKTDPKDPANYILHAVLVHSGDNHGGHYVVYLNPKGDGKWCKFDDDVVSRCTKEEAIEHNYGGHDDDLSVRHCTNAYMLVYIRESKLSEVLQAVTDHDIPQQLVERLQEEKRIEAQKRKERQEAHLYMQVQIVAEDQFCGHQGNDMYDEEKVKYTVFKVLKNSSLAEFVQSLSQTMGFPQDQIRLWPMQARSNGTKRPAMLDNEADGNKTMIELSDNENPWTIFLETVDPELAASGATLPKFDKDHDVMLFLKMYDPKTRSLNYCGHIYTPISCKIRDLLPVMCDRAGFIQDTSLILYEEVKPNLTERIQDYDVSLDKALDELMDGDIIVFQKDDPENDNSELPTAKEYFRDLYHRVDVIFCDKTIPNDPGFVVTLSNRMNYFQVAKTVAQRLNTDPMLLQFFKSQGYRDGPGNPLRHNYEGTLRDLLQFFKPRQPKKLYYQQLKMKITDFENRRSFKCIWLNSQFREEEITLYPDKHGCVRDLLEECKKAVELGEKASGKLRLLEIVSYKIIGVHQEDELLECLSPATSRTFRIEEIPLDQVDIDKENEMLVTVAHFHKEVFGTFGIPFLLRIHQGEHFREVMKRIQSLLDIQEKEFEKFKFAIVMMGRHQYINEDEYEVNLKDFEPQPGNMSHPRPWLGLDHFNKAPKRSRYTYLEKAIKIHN

IC50 [µM] | SMILES
4.6 | CCc1c(-c2ccc(O)cc2)cnc(N)c1-c1ccc(O)cc1 [Compound 2, 4-[6-amino-4-ethyl-5-(4-hydroxyphenyl)-3-pyridyl]phenol]
7.1 | Nc1ncc(-c2ccc(O)cc2)c(C(F)(F)F)c1-c1ccc(O)cc1 [Compound 5, 4-[6-amino-5-(4-hydroxyphenyl)-4-(trifluoromethyl)-3-pyridyl]phenol]
13 | CCc1c(-c2ccc(O)cc2)cnc(N)c1-c1ccc(OC)cc1F [Compound 10, 4-[6-amino-4-ethyl-5-(2-fluoro-4-methoxy-phenyl)-3-pyridyl]phenol]
7.8 | CCc1c(-c2cccc(C(F)F)c2)cnc(N)c1-c1ccc(O)cc1 [Compound 74, 4-[2-amino-5-[3-(difluoromethyl)phenyl]-4-ethyl-3-pyridyl]phenol]
3.6 | CCc1c(-c2ccc(NC(C)=O)nc2)cnc(N)c1-c1ccc(O)cc1 [Compound 75, N-[5-[6-amino-4-ethyl-5-(4-hydroxyphenyl)-3-pyridyl]-2-pyridyl]acetamide]
> 20 | CCc1c(-c2cc(F)cc(F)c2)cnc(N)c1-c1ccc(O)cc1 [Compound 76, 4-[2-amino-5-(3,5-difluorophenyl)-4-ethyl-3-pyridyl]phenol]
11 | CCc1c(-c2cccc(Cl)c2)cnc(N)c1-c1ccc(O)cc1 [Compound 77, 4-[2-amino-5-(3-chlorophenyl)-4-ethyl-3-pyridyl]phenol]
15.7 | CCc1c(-c2ccccc2Cl)cnc(N)c1-c1ccc(O)cc1 [Compound 78, 4-[2-amino-5-(2-chlorophenyl)-4-ethyl-3-pyridyl]phenol]
> 20 | CCc1c(-c2ccc(F)c(C)c2)cnc(N)c1-c1ccc(O)cc1 [Compound 79, 4-[2-amino-4-ethyl-5-(4-fluoro-3-methyl-phenyl)-3-pyridyl]phenol]
17.6 | CCc1c(-c2ccc(Cl)cc2)cnc(N)c1-c1ccc(O)cc1 [Compound 80, 4-[2-amino-5-(4-chlorophenyl)-4-ethyl-3-pyridyl]phenol]
18.2 | CCc1c(-c2cccc(CN3CCOCC3)c2)cnc(N)c1-c1ccc(O)cc1 [Compound 82, 4-[2-amino-4-ethyl-5-[3-(morpholinomethyl)phenyl]-3-pyridyl]phenol]
136 | CCc1c(-c2cnc(OC)nc2)cnc(N)c1-c1ccc(O)cc1 [Compound 83, 4-[2-amino-4-ethyl-5-(2-methoxypyrimidin-5-yl)-3-pyridyl]phenol]
7.2 | CCc1c(-c2ccc3cn[nH]c3c2)cnc(N)c1-c1ccc(O)cc1 [Compound 84, 4-[2-amino-4-ethyl-5-(1H-indazol-6-yl)-3-pyridyl]phenol]
14.6 | CCc1c(-c2cccc3nn(C)cc23)cnc(N)c1-c1ccc(O)cc1 [Compound 85, 4-[2-amino-4-ethyl-5-(2-methylindazol-4-yl)-3-pyridyl]phenol]
13.5 | CCc1c(-c2ccc3[nH]c(C)nc3c2)cnc(N)c1-c1ccc(O)cc1 [Compound 86, 4-[2-amino-4-ethyl-5-(2-methyl-1H-benzimidazol-5-yl)-3-pyridyl]phenol]
2.1 | CCc1c(-c2ccc(O)cc2)cnc(N)c1-c1ccc2[nH]ncc2c1 [Compound 87, 4-[6-amino-4-ethyl-5-(1H-indazol-5-yl)-3-pyridyl]phenol]
19.2 | CCc1c(-c2cccc(N)c2)cnc(N)c1-c1ccc(O)cc1 [Compound 90, 4-[2-amino-5-(3-aminophenyl)-4-ethyl-3-pyridyl]phenol]
47 | CCc1c(-c2ccc(N)cc2)cnc(N)c1-c1ccc(O)cc1 [Compound 91, 4-[2-amino-5-(4-aminophenyl)-4-ethyl-3-pyridyl]phenol]
13.8 | CCc1c(-c2ccc(O)cc2)cnc(N)c1-c1ccc2cn[nH]c2c1 [Compound 93, 4-[6-amino-4-ethyl-5-(1H-indazol-6-yl)-3-pyridyl]phenol]
9.6 | CCc1c(-c2ccc(O)c(C#N)c2)cnc(N)c1-c1ccc(O)cc1 [Compound 94, 5-[6-amino-4-ethyl-5-(4-hydroxyphenyl)-3-pyridyl]-2-hydroxy-benzonitrile]
106 | CCc1c(-c2ccc(O)c(C(N)=O)c2)cnc(N)c1-c1ccc(O)cc1 [Compound 95, 5-[6-amino-4-ethyl-5-(4-hydroxyphenyl)-3-pyridyl]-2-hydroxy-benzamide]

SMILES | IC50 [µM]
CCc1c(-c2ccc(C(=O)NC)nc2)cnc(N)c1-c1ccc(O)cc1 [Compound 92, 5-[6-amino-4-ethyl-5-(4-hydroxyphenyl)-3-pyridyl]-N-methyl-pyridine-2-carboxamide] | 1.5

These molecules were tested against T1, USP7, full-length, native C-Terminus (assay: Biochemical USP7 assay with Ubiquitin-Rho110 substrate (USP7_Ub-Rho110 Fluor)). Details: no pre-incubation; 1 hour reaction at room temperature; read-out: USP7 Ub-Rho110 Fluor (IC50).
Method: as §1, §2

IC50 [µM] | SMILES
7.7 | Cc1c(-c2ccc(O)cc2)cnc(N)c1-c1ccc(O)cc1 [Compound 1, 4-[6-amino-5-(4-hydroxyphenyl)-4-methyl-3-pyridyl]phenol]
3 | CCc1c(-c2ccc(O)cc2)cnc(N)c1-c1ccc(O)cc1 [Compound 2, 4-[6-amino-4-ethyl-5-(4-hydroxyphenyl)-3-pyridyl]phenol]
197 | CC(C)c1c(-c2ccc(O)cc2)cnc(N)c1-c1ccc(O)cc1 [Compound 3, 4-[6-amino-5-(4-hydroxyphenyl)-4-isopropyl-3-pyridyl]phenol]
29.1 | COc1c(-c2ccc(O)cc2)cnc(N)c1-c1ccc(O)cc1 [Compound 4, 4-[6-amino-5-(4-hydroxyphenyl)-4-methoxy-3-pyridyl]phenol]
6 | Nc1ncc(-c2ccc(O)cc2)c(C(F)(F)F)c1-c1ccc(O)cc1 [Compound 5, 4-[6-amino-5-(4-hydroxyphenyl)-4-(trifluoromethyl)-3-pyridyl]phenol]
35.2 | CCCc1c(-c2ccc(O)cc2)cnc(N)c1-c1ccc(O)cc1 [Compound 6, 4-[6-amino-5-(4-hydroxyphenyl)-4-propyl-3-pyridyl]phenol]
4.5 | CCc1c(-c2ccc(O)cc2F)cnc(N)c1-c1ccc(O)cc1 [Compound 7, 4-[6-amino-4-ethyl-5-(4-hydroxyphenyl)-3-pyridyl]-3-fluoro-phenol]
45 | CCc1c(-c2cccc(NC(C)=O)c2)cnc(N)c1-c1ccc(O)cc1 [Compound 8, N-[3-[6-amino-4-ethyl-5-(4-hydroxyphenyl)-3-pyridyl]phenyl]acetamide]
56.6 | Nc1ncc(-c2ccc(O)cc2)c(C2CC2)c1-c1ccc(O)cc1 [Compound 9, 4-[6-amino-4-cyclopropyl-5-(4-hydroxyphenyl)-3-pyridyl]phenol]
7.5 | CCc1c(-c2ccc(O)cc2)cnc(N)c1-c1ccc(OC)cc1F [Compound 10, 4-[6-amino-4-ethyl-5-(2-fluoro-4-methoxy-phenyl)-3-pyridyl]phenol]
> 20 | CCc1c(-c2ccc(O)cc2)cnc(N)c1-c1ccc(O)cc1F [Compound 11, 4-[2-amino-4-ethyl-5-(4-hydroxyphenyl)-3-pyridyl]-3-fluoro-phenol]
23.9 | CCc1c(-c2cccc(CN(C)C)c2)cnc(N)c1-c1ccc(O)cc1 [Compound 12, 4-[2-amino-5-[3-[(dimethylamino)methyl]phenyl]-4-ethyl-3-pyridyl]phenol]

What follows are molecules tested on p53 and p21 in HCT116 colon cancer cell lines (assay: Western blot of p53 and p21 in isogenic HCT116 cell lines (FIG. 2A)). Details: isogenic HCT116: wild-type, USP7 null.
Type: cell-based, Human
Method: In 24-well plates, 0.10-0.15×10^6 (adherent) or 0.5×10^6 (suspension) cells were treated with 15 μM or 2.5 μM compounds, respectively, for 24 h in low serum prior to lysis for Western Blot analysis.

SMILES | stabilization of p53 and p21 (western blot)
CCc1c(-c2ccc(C(=O)NC)nc2)cnc(N)c1-c1ccc(O)cc1 [Compound 92, 5-[6-amino-4-ethyl-5-(4-hydroxyphenyl)-3-pyridyl]-N-methyl-pyridine-2-carboxamide] | stabilize p53 and p21

From US9573899B2, “USP7 inhibitor compounds and methods of use” (Genentech, Inc., priority 2015, dated 2017)
